Data published in PMC10388363, “Novel 1,4-Dihydropyridines as Specific Binders and Activators of SIRT3 Impair Cell Viability and Clonogenicity and Downregulate Hypoxia-Induced Targets in Cancer Cells” (Journal of Medicinal Chemistry, 2023).

Legend:
HaCaT cells = experiment: Cell viability / cell death in healthy HaCaT cells; type: cell-based, human; conditions: for toxicity against healthy HaCaT cells: 5, 10, and 25 μM, 24 and 48 h; for Cell death (%) T24 / Cell death (%) T48: HaCaT; for Cell death (%) T24: 24 h; for Cell death (%) T48: 48 h
Description: Breast cancer cell line MDA-MB-231, anaplastic thyroid cancer cell line CAL-62 and human keratinocytes HaCaT were purchased from ATCC and were cultured in RPMI 1640 medium (R0883 Sigma Aldrich-MERCK) (MDA-MB-231 and CAL-62) or DMEM medium (11965092, Gibco) supplemented with 10% fetal bovine serum (Sigma-Aldrich-MERCK, F9665), 2 mM glutamine (G7513; Sigma-Aldrich-MERCK), 100 units/mL penicillin and 0.1 mg/mL streptomycin (P0781; Sigma-Aldrich-MERCK). Adherent cells were detached by Trypsin–EDTA solution (TA049; Sigma-Aldrich-MERCK). Cells were maintained at 37 °C in humidified incubator with 5% CO2. Cells were treated with […] (CoCl2) (Merck; C8661) dissolved in distilled, sterile water for 24 h to induce hypoxia (200 μM). […] SIRT3 inhibitor 3-TYP was dissolved in DMSO and added to a final concentration of 1 μM for 24 and/or 48 h.
Cell viability was assessed by the trypan blue exclusion assay. At the end of treatments, cells were harvested and stained with 0,4% trypan blue (Merck; T8154). The cell suspension was applied to a hemocytometer and counted with phase contrast microscopy (NIKON EclipseTE2000U, Nikon Netherlands, Amsterdam, The Netherlands).

human SIRT3 = target: T1, human SIRT3 (Homo sapiens, UniProt Q9NTG7); experiment: Surface plasmon resonance binding assay, immobilized SIRT3; conditions: SPR, Scatchard analysis, analytes 5-80 μM
T1 construct: pET151D/Topo (Sirt3-114-380 and Sirt5-34-302); His tag (N, cleaved yes); made in house; host or cells: Escherichia coli
T1 sequence (Q9NTG7 114-380): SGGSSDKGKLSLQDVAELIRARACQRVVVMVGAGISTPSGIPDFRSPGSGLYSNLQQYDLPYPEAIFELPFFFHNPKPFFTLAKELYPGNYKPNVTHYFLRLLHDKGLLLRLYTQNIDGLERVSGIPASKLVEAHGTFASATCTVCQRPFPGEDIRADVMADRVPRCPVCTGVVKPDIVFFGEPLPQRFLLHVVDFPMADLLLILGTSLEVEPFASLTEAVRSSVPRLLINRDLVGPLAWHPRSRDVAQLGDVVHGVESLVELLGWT
Description: Next, surface plasmon resonance (SPR) experiments were conducted with selected SIRT3 activators 2e and 3a–d to ascertain their biophysical interaction with the human SIRT3 protein. Their parental compounds 2 and 3, together with honokiol, were used as positive controls. The experiments were carried out twice at different concentrations (5, 10, 20, 40, and 80 μM), by injecting the compounds at increasing doses (Figure 5). The resonance units (RU) increase with respect to baseline indicates the formation of the SIRT3/ligand complex, the plateau region represents the steady-state phase of the interaction (RUeq, RU at equilibrium) and the decrease in RU after 180 s represents dissociation of analytes from the immobilized SIRT3 protein after injection of the buffer.
SPR experiments were carried out using a SensiQ Pioneer system (SensiQ, Oklahoma City, OK, USA), essentially as in Genovese et al. 2020[84] and in Battista et al. 2021,[85] with some modifications, as follows.
The sensor chip (COOH5) was chemically activated by a 35 μL injection of a 1:1 mixture of […] (200 mM) and N-hydroxysuccinimide (50 mM) at a flow rate of 5 μL/min. Sirtuin3 (ligand) was immobilized on activated sensor chips via amine coupling. Immobilization was carried out in 20 mM sodium acetate at pH 4.0; unreacted groups were blocked by injecting 1 M ethanolamine hydrochloride (35 μL). Sirtuin3 immobilization level obtained was 1500–4000 RU.
The analytes, dissolved in 100% DMSO at 10 mM concentration, were diluted in buffer 20 mM Hepes, 150 mM NaCl, 0.005% surfactant P20 buffer (HBSP) to a concentration of 200 μM (2% final DMSO concentration), further diluted in HBSP + 2% DMSO (HBSP2%D) and injected on the sensor chip at a constant flow rate (nominal flow rate = 30 μL/min) at the following concentrations: 5, 10, 20, 40, and 80 μM.
The RU increase relative to baseline indicates complex formation (taking place at known analytes concentrations at each moment in the gradient); the plateau region represents the steady-state phase of the interaction (RUeq); and the decrease in RU after 180 s represents dissociation of analytes from the immobilized Sirtiun3 after injection of HBSP2%D. Regeneration procedures are based on two long (2000 and 500 s) injections of buffer, separated by a brief (5 s) injection of 10 mM NaOH.
Control experiments were performed in sensor chips treated as described above in the absence of an immobilized ligand. Kinetic evaluation of the sensorgrams was obtained using the SensiQ Qdat program and full fitting with 1, 2, and 3 sites; Scatchard analysis was used to determine apparent KD values.

MDA-MB-231 cells = experiment: Scratch assay, MDA-MB-231 cell migration; type: cell-based, human; conditions: 50 μM, 48 h
Description: Next, a scratch assay on MDA-MB-231 cells after treatment with 3c and 3d at 50 μM for 48 h was performed to assess their effect on cell migration (Figure 14).
Cell lines were maintained in culture medium (as above) until reaching 100% confluence, then shifted to a serum-depleted culture medium to inhibit cell proliferation, as described in Magistri et al.;[83] a scratch wound was created on the cell layer using a micropipette tip. Micrographs were taken at 0 and 48 h after the scratch. Cell-devoid areas at 0 and 48 h after the scratch were quantified through the Fiji ImageJ image processing package.

Row | Kd (human SIRT3) [µM] | SMILES | toxicity against healthy HaCaT cells (HaCaT cells) | MDA-MB-231 cell migration (MDA-MB-231 cells) | Cell death (%) T24 (HaCaT cells; 5 μM) | Cell death (%) T48 (HaCaT cells; 5 μM) | Cell death (%) T24 (HaCaT cells; 10 μM) | Cell death (%) T48 (HaCaT cells; 10 μM) | Cell death (%) T24 (HaCaT cells; 25 μM) | Cell death (%) T48 (HaCaT cells; 25 μM) | impairment of MDA-MB-231 migration rate (MDA-MB-231 cells)
1 | 29 | CCOC(=O)C1=CN(C(=O)c2ccc(OC)c(OC)c2)C=C(C(=O)OCC)C1c1ccccc1 [Compound 3c, Diethyl 1-(3,4-dimethoxybenzoyl)-4-phenyl-1,4-dihydropyridine-3,5-dicarboxylate] | negligible toxicity | nicely reduce | – | – | – | – | – | – | –
2 | – | CCOC(=O)C1=CN(C(=O)c2cc(OC)cc(OC)c2)C=C(C(=O)OCC)C1c1ccccc1 [Compound 3d, Diethyl 1-(3,5-dimethoxybenzoyl)-4-phenyl-1,4-dihydropyridine-3,5-dicarboxylate] | some degree of cell viability reduction and cell death only after 48 h treatment and at higher concentrations (10 and 25 μM) | nicely reduce | 3,9% | 16,1% | 8,4% | 33,9% | 15,3% | 47,3% | over 75%
